Assay [1] relates to Mycobacterium tuberculosis. Nature of the assay: Antimycobacterial activity against Mycobacterium tuberculosis H37Rv by agar dilution method. The assay is classed as functional.
Another assay relates to Vero. Put plainly: Cytotoxicity against Vero cell line upto 62.5 ug/ml after 72 hrs by MTT assay. The assay is classed as functional, cell-based. Conditions: Chlorocebus sabaeus.

≈ marks a conversion by molar mass, not a printed value.

A word on the MIC: it is the lowest concentration that inhibits growth of the organism. The low end stands for greater potency, the high end for weaker potency.

Turning to `Cc1cc(C2=NN(C(=O)c3ccncc3)C(c3ccc(N(C)C)cc3)C2)ccc1O` (stereo not given), the MIC in assay [1] stood at 1.95 µM (≈ 0.781 µg/mL).
Still for that read-out and setting: the same measure for `Cc1cc(C2=NN(C(=O)c3ccncc3)C(c3ccccc3)C2)ccc1O` (stereo not given): 8.73 µM (≈ 3.12 µg/mL).
`Cc1cc(C2=NN(C(=O)c3ccncc3)C(c3c(Cl)cccc3Cl)C2)ccc1O` (stereo not given): the Activity result in the assay on Vero was “Not toxic”. Further, the MIC in assay [1] stood at 0.47 µM (≈ 0.2 µg/mL).
In turn, `COc1ccc(C2CC(c3ccc(O)c(C)c3)=NN2C(=O)c2ccncc2)c(OC)c1OC` (stereo not given) displayed an MIC in assay [1] of 3.93 µM (≈ 1.76 µg/mL).
On the same count and under the same terms, the same measure for `COc1ccc(C2CC(c3ccc(O)c(C)c3)=NN2C(=O)c2ccncc2)cc1OC` (stereo not given): 1.87 µM (≈ 0.781 µg/mL).
On the same count and under the same terms, the same measure for `Cc1cc(C2=NN(C(=O)c3ccncc3)C(c3ccc(Cl)cc3)C2)ccc1O` (stereo not given): 1.99 µM (≈ 0.78 µg/mL).
For the compound `Cc1cc(C2=NN(C(=O)c3ccncc3)C(c3ccc(F)cc3)C2)ccc1O` (stereo not given), the Activity entry in the assay on Vero was “Not toxic”. The compound further yielded an MIC in assay [1] of 0.27 µM (≈ 0.101 µg/mL).
On the same counts, the results for `Cc1cc(C2=NN(C(=O)c3ccncc3)C(c3ccccc3Cl)C2)ccc1O` (stereo not given) are “Not toxic” and 0.26 µM (≈ 0.102 µg/mL).
In the case of `Cc1cc(C2=NN(C(=O)c3ccncc3)C(c3ccco3)C2)ccc1O` (stereo not given), the MIC in assay [1] was 0.58 µM (≈ 0.201 µg/mL).
The same measure, in the same setting: as for `COc1ccc(C2CC(c3ccc(O)c(C)c3)=NN2C(=O)c2ccncc2)cc1` (stereo not given), the figure is 16.1 µM (≈ 6.25 µg/mL); as for `NNC(=O)c1ccncc1` [ISONIAZID], 0.73 µM (≈ 0.1 µg/mL); as for `Cc1cc(C2=NN(C(=O)c3ccncc3)C(c3cccc([N+](=O)[O-])c3)C2)ccc1O` (stereo not given), 15.5 µM (≈ 6.25 µg/mL).
